Literature values as cited in patent US11957711B2 (priority 2021, dated 2024).

Assays:
[1] = parts per million in gas; gas generated from HTH and carbon dioxide

SMILES: ClOCl [CL2O, Dichlorine monoxide]
- maximum allowable concentration [1]: around 1.25 ppm
- Solubility in water: 143 g/100 g
- Solubility in other solvent (CCL4): soluble in CCL4

SMILES: OCl [HCLO, Hypochlorous acid]
- time to kill the germs (germs): a few seconds
